The record followed here is patent US11142526B2, “Spirocycle compounds and methods of making and using same” (H. Lundbeck A/S, priority 2017, dated 2021).

The term inhibition denotes the percentage by which the read-out fell short of the control. A word on the IC50: it is the concentration that gives 50% inhibition. High values mean weaker potency, low ones greater potency.

Structures are written as SMILES.

Test [1] has as its target T1, MAGL (Mus musculus (Mouse), UniProt O35678). The experiment in a line: Mouse brain proteomes from inhibitor treated mice (oral gavage, brain MAGL activity 4 h after administration). It counts as in vivo. The conditions noted are these: 5 mg/kg oral gavage. The procedure: Preparation of Mouse Brain Proteomes from Inhibitor Treated Mice.
Inhibitors were administered to wild-type C57B1/6J by oral gavage in a vehicle of polyethylene glycol.

In test [2] the target is T1, MAGL. The experiment in a line: In vitro competitive activity-based protein profiling, mouse brain proteome. It counts as biochemical. The conditions noted are these: for inhibition at 1 µM: mouse; for IC50: mouse brain.

T1 sequence (O35678 whole entry): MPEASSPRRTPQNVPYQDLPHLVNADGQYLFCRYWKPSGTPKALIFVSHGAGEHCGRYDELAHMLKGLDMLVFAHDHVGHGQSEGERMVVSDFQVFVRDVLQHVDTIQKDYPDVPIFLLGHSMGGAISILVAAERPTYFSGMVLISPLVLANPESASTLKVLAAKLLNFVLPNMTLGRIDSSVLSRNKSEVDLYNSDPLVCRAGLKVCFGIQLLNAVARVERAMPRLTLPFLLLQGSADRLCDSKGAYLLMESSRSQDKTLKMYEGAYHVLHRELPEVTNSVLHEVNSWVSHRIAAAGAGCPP

Turning to `CCc1cc(CN2CCC3(CCN(C(=O)OC(C(F)(F)F)C(F)(F)F)CC3)C2)n(C2CCOCC2)n1` [Example 7, 1,1,1,3,3,3-Hexafluoropropan-2-yl 2-((3-ethyl-1-(tetrahydro-2H-pyran-4-yl)-1H-pyrazol-5-yl)methyl)-2,8-diazaspiro[4.5]decane-8-carboxylate], the “MAGL % Inhibition at 5 mg/kg (Mouse)” value at MAGL [1] is “### (% inhibition is greater than or equal to 75%)”. At MAGL [2], this compound displayed an inhibition at 1 µM of more than 75% and a half-maximal inhibitory concentration (IC50) of less than 100 nM.

Take `O=C(OC(C(F)(F)F)C(F)(F)F)N1CCC2(CCCN2Cc2cc3c(Cl)cc(Cl)cc3[nH]2)CC1` [Example 11, 1,1,1,3,3,3-Hexafluoropropan-2-yl 1-((4,6-dichloro-1H-indol-2-yl)methyl)-1,8-diazaspiro[4.5]decane-8-carboxylate]: the “MAGL % Inhibition at 5 mg/kg (Mouse)” value on MAGL [1] is “### (% inhibition is greater than or equal to 75%)”. On MAGL [2], this compound returned an inhibition at 1 µM of more than 75% and a half-inhibitory concentration (IC50) of less than 100 nM.

As for `O=C(OC(C(F)(F)F)C(F)(F)F)N1CCC2(CCCN2C(=O)c2cc3cc(Cl)cc(Cl)c3[nH]2)CC1` [Example 16, 1,1,1,3,3,3-Hexafluoropropan-2-yl 1-(5,7-dichloro-1H-indole-2-carbonyl)-1,8-diazaspiro[4.5]decane-8-carboxylate], on MAGL [1], the “MAGL % Inhibition at 5 mg/kg (Mouse)” value is recorded as “### (% inhibition is greater than or equal to 75%)”. On MAGL [2], this compound yielded an inhibition at 1 µM of more than 75% and an IC50 of less than 100 nM.

With `O=C(OC(C(F)(F)F)C(F)(F)F)N1CCC2(CCCN2Cc2cc3cc(C(F)(F)F)ccc3s2)CC1` [Example 41, 1,1,1,3,3,3-Hexafluoropropan-2-yl 1-((5-(trifluoromethyl)benzo[b]thiophen-2-yl)methyl)-1,8-diazaspiro[4.5] decane-8-carboxylate], the “MAGL % Inhibition at 5 mg/kg (Mouse)” value on MAGL [1] is “### (% inhibition is greater than or equal to 75%)”. On MAGL [2], this compound came in with an inhibition at 1 µM of more than 75% and an IC50 of less than 100 nM.

For the compound `O=C(OC(C(F)(F)F)C(F)(F)F)N1CCC2(CCCN2Cc2sc3ccccc3c2Cl)CC1` [Example 42, 1,1,1,3,3,3-Hexafluoropropan-2-yl 1-((3-chlorobenzo[b]thiophen-2-yl)methyl)-1,8-diazaspiro[4.5] decane-8-carboxylate], the “MAGL % Inhibition at 5 mg/kg (Mouse)” value at MAGL [1] is on record as “### (% inhibition is greater than or equal to 75%)”. At MAGL [2], this compound registered an inhibition at 1 µM of more than 75% and a half-inhibitory concentration (IC50) of less than 100 nM.

For `Cc1c(CN2CCCC23CCN(C(=O)OC(C(F)(F)F)C(F)(F)F)CC3)sc2ccccc12` [Example 43, 1,1,1,3,3,3-Hexafluoropropan-2-yl 1-((3-methylbenzo[b]thiophen-2-yl)methyl)-1,8-diazaspiro[4.5] decane-8-carboxylate], the “MAGL % Inhibition at 5 mg/kg (Mouse)” value at MAGL [1] is “### (% inhibition is greater than or equal to 75%)”. This compound came in with a 50% inhibitory concentration (IC50) at MAGL [2] of less than 100 nM.

For `COc1ccc(-c2cc(CN3CCCC34CCN(C(=O)OC(C(F)(F)F)C(F)(F)F)CC4)no2)cc1` [Example 46, 1,1,1,3,3,3-Hexafluoropropan-2-yl 1-((5-(4-methoxyphenyl)isoxazol-3-yl)methyl)-1,8-diazaspiro[4.5] decane-8-carboxylate], at MAGL [1], the “MAGL % Inhibition at 5 mg/kg (Mouse)” value is “## (% inhibition is less than 75% and greater than 25%)”. Also, the IC50 on MAGL [2] was less than 100 nM.

`O=C(OC(C(F)(F)F)C(F)(F)F)N1CCC2(CCN(Cc3cc4cc(Cl)ccc4s3)C2)CC1` [Example 51, 1,1,1,3,3,3-Hexafluoropropan-2-yl 2-((5-chlorobenzo[b]thiophen-2-yl)methyl)-2,8-diazaspiro[4.5] decane-8-carboxylate]: the “MAGL % Inhibition at 5 mg/kg (Mouse)” value on MAGL [1] was “### (% inhibition is greater than or equal to 75%)”. Moreover, on MAGL [2], the inhibition at 1 µM was more than 75% and the IC50 is less than 100 nM.

`O=C(OC(C(F)(F)F)C(F)(F)F)N1CCC2(CCCN2Cc2cc3cc(F)ccc3[nH]2)CC1` [Example 52, 1,1,1,3,3,3-Hexafluoropropan-2-yl 1-((5-fluoro-1H-indol-2-yl)methyl)-1,8-diazaspiro[4.5] decane-8-carboxylate]: the “MAGL % Inhibition at 5 mg/kg (Mouse)” value at MAGL [1] is “### (% inhibition is greater than or equal to 75%)”. Moreover, at MAGL [2], the inhibition at 1 µM is more than 75% and the 50% inhibitory concentration (IC50) was less than 100 nM.

With `O=C(OC(C(F)(F)F)C(F)(F)F)N1CCC2(CCCN2Cc2ccc3ccccc3n2)CC1` [Example 54, 1,1,1,3,3,3-Hexafluoropropan-2-yl 1-(quinolin-2-ylmethyl)-1,8-diazaspiro [4.5]decane-8-carboxylate], the “MAGL % Inhibition at 5 mg/kg (Mouse)” value at MAGL [1] was “### (% inhibition is greater than or equal to 75%)”. Further, on MAGL [2], the inhibition at 1 µM was more than 75% and the IC50 is less than 100 nM.

For the compound `Cc1ccc2sc(CN3CCCC34CCN(C(=O)OC(C(F)(F)F)C(F)(F)F)CC4)cc2c1` [Example 61, 1,1,1,3,3.3-Hexafluoropropan-2-yl 1-((5-methylbenzo[b]thiophen-2-yl)methyl)-1,8-diazaspiro[4.5] decane-8-carboxylate], the “MAGL % Inhibition at 5 mg/kg (Mouse)” value at MAGL [1] is recorded as “### (% inhibition is greater than or equal to 75%)”. At MAGL [2], this compound registered an inhibition at 1 µM of more than 75% and a half-maximal inhibitory concentration (IC50) of less than 100 nM.

As to `O=C(OC(C(F)(F)F)C(F)(F)F)N1CCC2(CCCN2C(=O)c2ccc3occc3c2)CC1` [Example 77, 1,1,1,3,3,3-Hexafluoropropan-2-yl 1-(benzofuran-5-carbonyl)-1,8-diazaspiro[4.5] decane-8-carboxylate], at MAGL [1], the “MAGL % Inhibition at 5 mg/kg (Mouse)” value is “### (% inhibition is greater than or equal to 75%)”. Also, on MAGL [2], the inhibition at 1 µM was more than 75% and the IC50 is less than 100 nM.

On to `O=C(OC(C(F)(F)F)C(F)(F)F)N1CCC2(CCCN2C(=O)c2cc3cc(Cl)ccc3[nH]2)CC1` [Example 93, 1,1,1,3,3.3-Hexafluoropropan-2-yl 1-(5-chloro-1H-indole-2-carbonyl)-1,8-diazaspiro[4.5] decane-8-carboxylate], for which the “MAGL % Inhibition at 5 mg/kg (Mouse)” value on MAGL [1] is given as “### (% inhibition is greater than or equal to 75%)”. On MAGL [2], this compound came in with an inhibition at 1 µM of more than 75% and an IC50 of less than 100 nM.

`O=C(OC(C(F)(F)F)C(F)(F)F)N1CCC2(CCCN2C(=O)c2cc3ccc(C(F)(F)F)cc3s2)CC1` [Example 101, 1,1,1,3,3,3-Hexafluoropropan-2-yl 1-(6-(trifluoromethyl)benzo[b]thiophene-2-carbonyl)-1,8-diazaspiro[4.5] decane-8-carboxylate]: the “MAGL % Inhibition at 5 mg/kg (Mouse)” value at MAGL [1] was “### (% inhibition is greater than or equal to 75%)”. At MAGL [2], this compound came in with an inhibition at 1 µM of more than 75% and an IC50 of less than 100 nM.

Take `O=C(OC(C(F)(F)F)C(F)(F)F)N1CCC2(CCCN2C(=O)c2cc3cc(C(F)(F)F)ccc3s2)CC1` [Example 102, 1,1,1,3,3,3-Hexafluoropropan-2-yl 1-(5-(trifluoromethyl)benzo[b]thiophene-2-carbonyl)-1,8-diazaspiro[4.5] decane-8-carboxylate]: the “MAGL % Inhibition at 5 mg/kg (Mouse)” value on MAGL [1] was “### (% inhibition is greater than or equal to 75%)”. At MAGL [2], this compound displayed an inhibition at 1 µM of more than 75% and a half-maximal inhibitory concentration (IC50) of less than 100 nM.

As to `O=C(OC(C(F)(F)F)C(F)(F)F)N1CCC2(CCCN2C(=O)c2cc3cccc(Cl)c3s2)CC1` [Example 105, 1,1,1,3,3,3-Hexafluoropropan-2-yl 1-(7-chlorobenzo[b]thiophene-2-carbonyl)-1,8-diazaspiro[4.5] decane-8-carboxylate], at MAGL [1], the “MAGL % Inhibition at 5 mg/kg (Mouse)” value is “### (% inhibition is greater than or equal to 75%)”. On MAGL [2], this compound yielded an inhibition at 1 µM of more than 75% and an IC50 of less than 100 nM.

Regarding `Cc1c(C(=O)N2CCCC23CCN(C(=O)OC(C(F)(F)F)C(F)(F)F)CC3)[nH]c2ccc(Cl)cc12` [Example 109, 1,1,1,3,3,3-Hexafluoropropan-2-yl 1-(5-chloro-3-methyl-1H-indole-2-carbonyl)-1,8-diazaspiro[4.5] decane-8-carboxylate], at MAGL [1], the “MAGL % Inhibition at 5 mg/kg (Mouse)” value was “### (% inhibition is greater than or equal to 75%)”. On MAGL [2], the inhibition at 1 µM is more than 75% and the IC50 was less than 100 nM.

On to `CC(C)(C)c1cc(CN2CCC3(CCN(C(=O)OC(C(F)(F)F)C(F)(F)F)CC3)C2)n(C2CCOCC2)n1` [Example 213, 1,1,1,3,3,3-Hexafluoropropan-2-yl 2-((3-(t-butyl)-1-(tetrahydro-2H-pyran-4-yl)-1H-pyrazol-5-yl)methyl)-2,8-diazaspiro[4.5]decane-8-carboxylate], for which the “MAGL % Inhibition at 5 mg/kg (Mouse)” value at MAGL [1] is “### (% inhibition is greater than or equal to 75%)”. In addition, on MAGL [2], the inhibition at 1 µM is more than 75% and the half-inhibitory concentration (IC50) was less than 100 nM.

On to `CC(C)c1cc(CN2CCC3(CCN(C(=O)OC(C(F)(F)F)C(F)(F)F)CC3)C2)n(C2CCOCC2)n1` [Example 214, 1,1,1,3,3,3-Hexafluoropropan-2-yl 2-((3-isopropyl-1-(tetrahydro-2H-pyran-4-yl)-1H-pyrazol-5-yl)methyl)-2,8-diazaspiro[4.5]decane-8-carboxylate], for which the “MAGL % Inhibition at 5 mg/kg (Mouse)” value on MAGL [1] was “### (% inhibition is greater than or equal to 75%)”. On MAGL [2], this compound displayed an inhibition at 1 µM of more than 75% and a half-maximal inhibitory concentration (IC50) of less than 100 nM.

`CCc1cc(CN2CCC3(CCN(C(=O)OC(C(F)(F)F)C(F)(F)F)CC3)C2)n(-c2ccccc2Cl)n1` [Example 215, 1,1,1,3,3,3-Hexafluoropropan-2-yl 2-((1-(2-chlorophenyl)-3-ethyl-1H-pyrazol-5-yl)methyl)-2,8-diazaspiro[4.5]decane-8-carboxylate]: the “MAGL % Inhibition at 5 mg/kg (Mouse)” value at MAGL [1] is on record as “### (% inhibition is greater than or equal to 75%)”. At MAGL [2], this compound showed an inhibition at 1 µM of more than 75% and a concentration for half-maximal inhibition (IC50) of less than 100 nM.

Regarding `CC(C)c1cc(CN2CCC3(CCN(C(=O)OC(C(F)(F)F)C(F)(F)F)CC3)C2)n(-c2ccccc2Cl)n1` [Example 216, 1,1,1,3,3,3-Hexafluoropropan-2-yl 2-((1-(2-chlorophenyl)-3-isopropyl-1H-pyrazol-5-yl)methyl)-2,8-diazaspiro[4.5]decane-8-carboxylate], the “MAGL % Inhibition at 5 mg/kg (Mouse)” value at MAGL [1] is reported as “### (% inhibition is greater than or equal to 75%)”. Moreover, at MAGL [2], the inhibition at 1 µM was more than 75% and the half-maximal inhibitory concentration (IC50) is less than 100 nM.
